Here are results for 42 molecules from the Kinase Knowledgebase extract (Sharma et al. 2016).

Chain of MAPK14 (Q16539 whole entry, looked up): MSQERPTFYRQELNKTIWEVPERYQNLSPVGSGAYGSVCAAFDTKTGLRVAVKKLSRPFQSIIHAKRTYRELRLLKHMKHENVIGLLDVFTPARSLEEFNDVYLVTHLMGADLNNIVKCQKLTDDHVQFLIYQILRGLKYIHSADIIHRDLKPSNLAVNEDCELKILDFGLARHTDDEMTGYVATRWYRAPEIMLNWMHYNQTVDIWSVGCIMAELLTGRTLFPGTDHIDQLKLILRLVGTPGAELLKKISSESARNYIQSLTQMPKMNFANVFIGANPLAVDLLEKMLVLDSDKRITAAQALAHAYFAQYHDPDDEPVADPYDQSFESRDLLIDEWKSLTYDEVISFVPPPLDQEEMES

The target in one test is ROCK2 (human) (UniProt O75116). Nature of the test: Assessment of ROCK2 Kinase Activity (ProQinase Setup).
Chain of ROCK2 (human) (O75116 whole entry, looked up): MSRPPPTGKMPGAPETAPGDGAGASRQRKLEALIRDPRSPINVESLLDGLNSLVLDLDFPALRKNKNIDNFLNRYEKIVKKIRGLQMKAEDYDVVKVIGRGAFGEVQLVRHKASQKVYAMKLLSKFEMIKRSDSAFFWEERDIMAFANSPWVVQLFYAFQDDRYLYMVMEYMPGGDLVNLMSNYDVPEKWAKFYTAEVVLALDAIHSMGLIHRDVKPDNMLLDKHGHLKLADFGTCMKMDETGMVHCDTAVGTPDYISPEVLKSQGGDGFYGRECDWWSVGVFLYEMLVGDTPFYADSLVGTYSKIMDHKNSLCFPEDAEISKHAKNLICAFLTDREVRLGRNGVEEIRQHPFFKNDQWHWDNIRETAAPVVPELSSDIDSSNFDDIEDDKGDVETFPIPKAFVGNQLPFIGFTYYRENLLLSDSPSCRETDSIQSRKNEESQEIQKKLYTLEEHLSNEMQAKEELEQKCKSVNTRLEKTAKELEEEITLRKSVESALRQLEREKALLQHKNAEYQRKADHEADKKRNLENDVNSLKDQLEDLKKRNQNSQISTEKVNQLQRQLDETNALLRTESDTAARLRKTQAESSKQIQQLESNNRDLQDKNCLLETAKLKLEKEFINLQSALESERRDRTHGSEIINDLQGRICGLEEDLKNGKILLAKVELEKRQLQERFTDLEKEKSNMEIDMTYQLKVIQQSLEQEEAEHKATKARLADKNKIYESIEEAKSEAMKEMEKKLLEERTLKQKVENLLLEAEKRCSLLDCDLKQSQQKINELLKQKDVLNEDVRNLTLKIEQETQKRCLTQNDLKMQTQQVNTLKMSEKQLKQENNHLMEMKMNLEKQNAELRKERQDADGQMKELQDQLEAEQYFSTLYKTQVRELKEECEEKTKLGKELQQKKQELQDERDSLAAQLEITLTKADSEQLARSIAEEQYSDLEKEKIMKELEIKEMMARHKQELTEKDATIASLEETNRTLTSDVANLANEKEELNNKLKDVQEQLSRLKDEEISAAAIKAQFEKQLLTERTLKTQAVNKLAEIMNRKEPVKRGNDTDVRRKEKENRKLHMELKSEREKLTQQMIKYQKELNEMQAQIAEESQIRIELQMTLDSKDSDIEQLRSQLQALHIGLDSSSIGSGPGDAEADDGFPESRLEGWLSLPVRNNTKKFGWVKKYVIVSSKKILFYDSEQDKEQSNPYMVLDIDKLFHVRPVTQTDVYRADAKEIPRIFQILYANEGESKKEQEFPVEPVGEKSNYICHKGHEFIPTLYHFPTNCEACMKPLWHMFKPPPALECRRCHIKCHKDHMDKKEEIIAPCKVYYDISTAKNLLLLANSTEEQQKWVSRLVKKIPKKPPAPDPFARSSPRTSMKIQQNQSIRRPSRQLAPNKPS
Conditions: not given
As a reminder, the IC50 is the concentration that gives 50% inhibition. Lower therefore signals inhibition by little substance. Molecule `NCc1ccc(C(=O)Nc2ccncc2F)cc1-c1cccc(C(=O)OC[C@H]2CCCO2)c1` gave an IC50 of 100 to 1000 nM.
On the same count and under the same terms, to `NCc1ccc(C(=O)Nc2ccncc2F)cc1-c1cccc(CC(=O)OCC2CCCC2)c1` belongs 100 to 1000 nM; to `COCCCOC(=O)c1cccc(-c2cc(C(=O)Nc3ccncc3)ccc2CN)c1`, 100 to 1000 nM; to `NCc1ccc(C(=O)Nc2ccncc2F)cc1-c1cccc(CC(=O)OC2CC3CCC2C3)c1` (configuration not stated), 100 to 1000 nM.

The target of the next test is EGFR (UniProt P00533).
Experiment: not given
Conditions: not given
For the molecule `Cc1[nH]c2ncnc(N3CCCc4ccccc43)c2c1C`, the IC50 was found to be 2690 nM.
As for `Nc1ccc(-c2cc3c(N4CCCc5ccccc54)ncnc3[nH]2)cc1`, the IC50 came out at 26 nM. Compared with the last molecule, the IC50 is about 100-fold lower.
`Nc1ccc(-c2cc3c(N4CCc5ccccc54)ncnc3[nH]2)cc1` showed an IC50 of 210 nM.
In turn, `Cc1[nH]c2ncnc(N3CCc4ccccc43)c2c1C` came in with an IC50 of 1560 nM.

For another test, the target named is EGFR (human) (UniProt P00533).
Chain of EGFR (human) (P00533 whole entry, looked up): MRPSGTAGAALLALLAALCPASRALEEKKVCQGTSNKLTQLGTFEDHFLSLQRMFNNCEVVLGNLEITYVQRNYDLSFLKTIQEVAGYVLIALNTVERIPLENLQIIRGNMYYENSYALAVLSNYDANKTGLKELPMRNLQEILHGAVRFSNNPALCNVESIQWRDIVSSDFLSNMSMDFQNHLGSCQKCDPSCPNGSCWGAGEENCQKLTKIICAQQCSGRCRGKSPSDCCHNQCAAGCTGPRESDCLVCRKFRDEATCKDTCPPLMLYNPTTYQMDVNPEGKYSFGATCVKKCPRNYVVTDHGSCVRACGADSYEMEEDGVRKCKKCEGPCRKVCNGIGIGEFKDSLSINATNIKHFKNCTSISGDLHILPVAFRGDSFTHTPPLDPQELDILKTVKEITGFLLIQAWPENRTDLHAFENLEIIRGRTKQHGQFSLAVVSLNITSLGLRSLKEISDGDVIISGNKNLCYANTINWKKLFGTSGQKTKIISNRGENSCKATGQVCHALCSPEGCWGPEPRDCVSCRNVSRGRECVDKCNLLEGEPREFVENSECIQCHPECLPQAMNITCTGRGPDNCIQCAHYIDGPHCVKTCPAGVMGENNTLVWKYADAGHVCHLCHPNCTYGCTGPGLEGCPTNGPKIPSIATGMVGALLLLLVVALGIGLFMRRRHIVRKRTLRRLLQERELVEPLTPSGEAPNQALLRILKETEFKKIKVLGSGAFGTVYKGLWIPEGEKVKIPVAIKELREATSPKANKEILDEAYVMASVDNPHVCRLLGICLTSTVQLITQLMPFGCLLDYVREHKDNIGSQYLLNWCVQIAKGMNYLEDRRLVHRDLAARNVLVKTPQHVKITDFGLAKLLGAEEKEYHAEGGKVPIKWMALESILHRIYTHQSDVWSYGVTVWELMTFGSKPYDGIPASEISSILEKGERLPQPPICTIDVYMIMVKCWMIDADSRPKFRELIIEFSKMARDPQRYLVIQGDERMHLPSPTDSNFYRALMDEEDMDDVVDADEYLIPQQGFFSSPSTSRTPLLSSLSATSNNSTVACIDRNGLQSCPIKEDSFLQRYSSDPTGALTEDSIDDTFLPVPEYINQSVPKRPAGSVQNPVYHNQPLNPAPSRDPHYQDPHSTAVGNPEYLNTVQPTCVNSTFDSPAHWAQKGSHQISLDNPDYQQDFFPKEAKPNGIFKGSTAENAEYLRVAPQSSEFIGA
Experiment: not given
To be noted: a431.
The Ki is the dissociation constant of the complex between target and ligand, obtained from inhibition or displacement. Low values mean tighter binding, high ones weaker binding. In the case of `N#C/C(=C\c1ccc(O)c(O)c1)C(=O)O`, the Ki was found to be 23600 nM.
`N#CC(C#N)=Cc1cc(O)cc(O)c1` came in with a Ki of 10000 nM. This Ki lies about 2.4-fold lower than the previous one.

A further test has as its target EGFR (UniProt P00533).
Experiment: not given
Conditions: not given
The source holds these as a separate data set.
Molecule `c1ccc(CNc2ncnc3ncccc23)cc1` had an IC50 of more than 10000 nM.
The same measure, in the same setting: to `CNc1ccc2ncnc(Nc3cccc(Br)c3)c2c1` belongs 7 nM.
Same read-out and setting: to `Nc1cc2ncnc(NCc3ccccc3)c2cn1` belongs 578 nM.

A further test concerns the target MAPK14 (UniProt Q16539). The test is described as follows: p38 Kinase Inhibition.
Conditions: not given
On to `COc1cc2ncnc(N3CCN(C(=S)NCc4ccc5c(c4)OCO5)CC3)c2cc1OC`, for which the IC50 is more than 30000 nM.
Same read-out and setting: to `COc1cc2ncnc(N3CCN(C(=S)NCc4ccccc4)CC3)c2cc1OC` belongs more than 30000 nM.
In turn, `C[C@]1(C(=O)N2CCOCC2)CO[C@H](c2nc(-c3ccc(F)cc3)c(-c3ccnc(NCc4ccccn4)n3)[nH]2)OC1` displayed an IC50 of 11 nM.

A further test has as its target PIK3CA (human) (UniProt P42336). Nature of the test: Assessment of PIK3CA Kinase Activity in NZB5 Cells.
Conditions: not given
`Cc1ccc([N+](=O)[O-])cc1S(=O)(=O)N(C)N=Cc1cnn2cc(Br)ccc12` gave an IC50 of more than 20000 nM.
Same read-out and setting: to `Cc1ccc([N+](=O)[O-])cc1S(=O)(=O)N(C)N=Cc1cnn2cccc(Br)c12` belongs more than 20000 nM.

The target of another test is EGFR (human) (UniProt P00533).
Experiment: not given
Conditions: not given
The molecule `O=C1C2=C(C(=O)c3c(O)ccc(O)c31)[C@@H](O)[C@@H](O)[C@@H](O)C2` gave an IC50 of 13000 nM.
The same measure, in the same setting: to `O=C(O)C1=Cc2c(Cl)ncnc2NCC1` belongs 36 nM; to `O=C1C(CO)=C(CO)C(=O)c2c(O)ccc(O)c21`, 15000 nM.
In turn, `CC(C)(C)NC(=O)c1cccc(Oc2ccc(Nc3ncnc4ccn(CCO)c34)cc2Cl)c1` came in with an IC50 of 2.3 nM.

A further test concerns the target EGFR (mouse) (UniProt P00533).
Experiment: not given
To be noted: mk.
`COc1cc(O)c2c(=O)c(-c3cccc(Cl)c3)cn(CCc3ccccc3)c2c1`: the 50% inhibitory concentration (IC50) was 4930 nM.
With `COc1cc(O)c2c(=O)c(-c3cccc(Cl)c3)coc2c1`, the IC50 turned out to be 45200 nM. This IC50 is about 9.2-fold higher than that of the molecule before.
With `COc1cc(O)c2c(=O)c(-c3cccc(Cl)c3)c[nH]c2c1`, the 50% inhibitory concentration (IC50) came to 11400 nM.
Molecule `COc1cc(O)c2c(=O)c(-c3cccc(Cl)c3)cn(C)c2c1` came in with an IC50 of 2830 nM.

A further test addresses EGFR (murine) (UniProt P00533).
Experiment: not given
The note with it: nih3t3.
As to `Cc1ccc2ncnc(Nc3cccc(C(F)(F)F)c3)c2c1`, the IC50 was 900 nM.
Take `COc1cc2ncnc(Nc3cccc(C(F)(F)F)c3)c2cc1OC`: the IC50 is less than 6 nM.
As for `COc1cc2ncnc(Nc3cccc(C#N)c3)c2cc1OC`, the IC50 was 200 nM.

A further test deals with MAPK14 (human) (UniProt Q16539). Nature of the test: Inhibition of TNF-alpha Production in PBMC Cells.
Chain of MAPK14 (human) (Q16539 whole entry, looked up): as the sequence (Q16539 whole entry, looked up) above
Conditions: not given
Turning to `COc1cc2ncnc(Nc3ccc(C)c(NC(=O)c4ccccc4)c3)c2cc1OC`, the IC50 stood at 3600 nM.
As to `COc1cc2c(Nc3cc(NC(=O)c4cccc(N(C)C)c4)ccc3C)ncnc2cc1OCCCN1CCOCC1`, the IC50 was found to be 2000 nM.
`CCC(=O)Nc1cc(Nc2ncnc3cc(OC)c(OC)cc23)ccc1F` gave an IC50 of 3200 nM.
For the molecule `COc1cc2c(Nc3cc(NC(=O)c4cccc(N(C)C)c4)ccc3C)ncnc2c(OC)c1OC`, the 50% inhibitory concentration (IC50) was found to be 5200 nM.

Another test addresses CDK2 (human) (UniProt P24941). The test is described as follows: Enzyme Assay.
Conditions: not given
Molecule `CC[C@H](CO)Nc1cc(NCc2ccc(-c3ccccn3)cc2)c2ncn(C(C)C)c2n1` showed an IC50 of 360 nM. In other words, the sub-micromolar range.
`CC[C@@H](CO)Nc1cc(NCc2ccc(-c3ccccn3)cc2)c2ncn(C(C)C)c2n1`: the IC50 was found to be 150 nM.
With `CC[C@@H](CO)Nc1cc(NCc2ccccc2)c2ncn(C(C)C)c2n1`, the IC50 came out at 420 nM.
Still for that read-out and setting: to `CC[C@H](CO)Nc1cc(NCc2ccccc2)c2ncn(C(C)C)c2n1` belongs 300 nM.

For the next test, the target named is PIK3CA (human) (UniProt P42336). Nature of the test: Assessment of PI3K Dependent Phosphorylation of p-AKT(T308) in PC3 Cells. The note with it: pc-3.
Chain of PIK3CA (human) (P42336 whole entry, looked up): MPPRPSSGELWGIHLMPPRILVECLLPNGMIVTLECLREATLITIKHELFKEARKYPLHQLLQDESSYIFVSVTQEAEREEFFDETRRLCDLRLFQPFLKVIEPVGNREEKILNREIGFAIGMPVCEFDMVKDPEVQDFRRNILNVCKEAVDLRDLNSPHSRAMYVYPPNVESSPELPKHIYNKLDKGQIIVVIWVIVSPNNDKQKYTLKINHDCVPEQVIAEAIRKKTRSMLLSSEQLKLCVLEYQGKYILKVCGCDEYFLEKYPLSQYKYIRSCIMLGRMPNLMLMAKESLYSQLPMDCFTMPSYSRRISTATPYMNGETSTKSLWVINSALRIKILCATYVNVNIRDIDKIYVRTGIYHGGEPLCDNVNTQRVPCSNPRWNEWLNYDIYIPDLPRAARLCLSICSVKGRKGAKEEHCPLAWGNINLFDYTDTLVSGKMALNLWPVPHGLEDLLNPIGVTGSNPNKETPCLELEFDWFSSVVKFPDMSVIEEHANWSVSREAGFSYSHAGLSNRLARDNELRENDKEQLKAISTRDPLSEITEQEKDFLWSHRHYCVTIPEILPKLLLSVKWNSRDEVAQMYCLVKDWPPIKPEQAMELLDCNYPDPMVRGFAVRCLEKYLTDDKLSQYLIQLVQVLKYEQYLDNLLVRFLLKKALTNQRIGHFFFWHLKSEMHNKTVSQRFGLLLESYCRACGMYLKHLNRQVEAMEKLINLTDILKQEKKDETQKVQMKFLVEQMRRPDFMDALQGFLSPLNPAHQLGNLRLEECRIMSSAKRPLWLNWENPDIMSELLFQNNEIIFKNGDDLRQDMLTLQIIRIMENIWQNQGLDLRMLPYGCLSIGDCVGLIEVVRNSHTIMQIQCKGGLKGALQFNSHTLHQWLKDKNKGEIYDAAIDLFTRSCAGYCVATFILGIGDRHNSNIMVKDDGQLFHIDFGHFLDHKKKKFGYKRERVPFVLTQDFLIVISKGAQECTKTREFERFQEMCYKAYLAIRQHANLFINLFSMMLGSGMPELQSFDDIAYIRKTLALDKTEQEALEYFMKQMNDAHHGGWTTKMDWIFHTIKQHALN
`CSc1c(-c2ccncc2)nc(-c2ccc(NC(=O)Nc3ccc(N4CCOCC4=O)cc3)cc2)nc1N1CCOCC1` registered an IC50 of 291 nM.
`CSc1c(-c2ccncc2)nc(-c2ccc(NC(=O)Nc3ccc(C(N)=O)cc3)cc2)nc1N1CCOCC1` came in with an IC50 of less than 10 nM.
For `CSc1cnc(-c2ccc(NC(=O)Nc3ccc(N4CCOCC4=O)cc3)cc2)nc1N1CCOCC1`, the IC50 amounted to 141 nM.
In turn, `CCOc1cnc(-c2ccc(NC(=O)Nc3ccc(NS(C)(=O)=O)cc3)cc2)nc1N1CCOCC1` came in with an IC50 of less than 10 nM.

A further test has as its target EGFR (human) (UniProt P00533).
Experiment: not given
To be noted: kb.
Molecule `COC(=O)N1CCC(Oc2cc3c(Nc4cccc(Cl)c4F)ncnc3cc2OC)CC1` displayed an IC50 of 35 nM.
